Patent US20260014278A1, “HYBRID PEPTIDE DENDRIMER SYSTEMS AND EXTRAHEPATIC DELIVERY” (NUNTIUS THERAPEUTICS LIMITED, priority 2022, published 2026)

How the values were obtained:
[1] = Dynamic light scattering: hydrodynamic size and polydispersity index (PDI) of nanoparticles; assay type: physicochemical; conditions: peptide dendrimer, lipid and mRNA complexes; N:P 8:1, DOTMA/DOPE w/w 10:1 to mRNA
Method: (§1) The hydrodynamic size was measured using the dynamic light scattering (DLS) technique. DLS is a very sensitive, non-invasive method to measure size and size distribution of nanoparticles in a liquid. […] Analysing these intensity fluctuations allows us to calculate the velocity of the Brownian motion. The size of the nanoparticles can be determined by using the Stokes-Einstein relationship. With the latest technology, it can measure nanoparticles smaller than 1 nm.
PDI is used to estimate the average uniformity of a particle solution, The method of cumulants is a standard technique for analysing DLS data on sample polydispersity. PDI is a number calculated from a 2 parameter fit to the correlation data (the cumulants analysis). The cumulants analysis is used to evaluate the autocorrelation function generated by a DLS experiment. The calculation is defined in ISO 13321 and ISO 22412. PDI values greater than 0.7 indicate that the sample has a very broad size distribution and is not suitable for the DLS technique. The calculations for these parameters are defined in the ISO standard document 13321:1996 E and ISO 22412:2008.
as §1, with “Size, zeta potential and polydispersity index (PDI) measurement: The hydrodynamic” for “The hydrodynamic”, “scattering (DLS) technique using the Zetasizer Advance Series—Pro (Malvern Panalytical Ltd, Malvern, UK) according to the manufacturer's instructions. DLS is” for “scattering (DLS) technique. DLS is”
The data obtained with DLS measurements can also be used to calculate the PDI of particle in solution. PDI is used to estimate the average uniformity of a particle solution. The method of cumulants is a standard technique for analysing DLS data on sample polydispersity. PDI is a number calculated from a 2 parameter fit to the correlation data (the cumulants analysis). The cumulants analysis is used to evaluate the autocorrelation function generated by a DLS experiment. The calculation is defined in ISO 13321 and ISO 22412. PDI values greater than 0.7 indicate that the sample has a very broad size distribution and is not suitable for the DLS technique. The calculations for these parameters are defined in the ISO standard document 13321:1996 E and ISO 22412:2008.
To measure the size and PDI, the samples were diluted 16× in 25 mM HEPES buffer (5 μl sample+75 μl buffer). Parameters: reference material: polystyrene latex, dispersant: water, 25° C. The PDI measurements were measured in nanoparticles comprising a dendrimer:nucleic acid NP ratio of 8:1.

lung and spleen = assay: Luciferase mRNA expression in mouse tissues after intravenous administration (bioluminescence); assay type: in vivo, Balb/c mice; conditions: 6 hours, DOTMA/DOPE w/w=23:1 to mRNA, dendrimers NP=0.6:1, FIG. 11
Method: All animal procedures were conducted following the Animal Research Reporting of In Vivo Experiments and approved by the UK Home Office for the conduct of regulated procedures under license. For the data underlying FIG. 11, Balb/c mice aged 4 weeks were purchased from Jackon's Laboratory and left to acclimate in the new housing environment for 1-week upon their arrival. All mice were weighed and warmed for 15 min at 37 C in a heating chamber. The formulations were delivered intravenously (5 mL/kg) via the tail vein using 30 G insulin syringes (BD biosciences).
All mice were imaged 6 hours post injection. BLI was performed using an IVIS Lumina II (Perkin Elmer) imaging system. Mice were administered D-luciferin (GoldBio) at a dose of 10 uL/g. Mice were anaesthetised in a chamber with 2.5% isoflurane and then placed on a heated imaging platform while being maintained on 2.5% isoflurane. For the data underlying FIG. 11, mice were imaged 10 min post administration of D-luciferin with an exposure time set at 45 sec to ensure the signal acquired was within an effective detection range (binning medium). Bioluminescence signal was quantified by measuring photon flux (photons/s) using the Living Image software (Perkin Elmer). […] The organs were placed in the centre of imaging platform (Lumina II system) and signal was measured using the acquisition settings detailed above. […]

lung cells = conditions: GSCG1,2-RL, 3-LR N:P=0.16:1, DOTMA:DOPE 10:1, coat 3 eq; 2.25 mg/kg IV, 4 hours; FIG. 13
Method: Six week old, female C57Bl/6 mice were supplied from Envigo UK. The mice were acclimatized in the animal facility for at least 7 days prior to use. […] The mice were randomised into 4 groups of n=3 when the tumours reached 0.15 cm3 (calliper measurements) and were dosed IV at 2.25 mg/kg or 3 mg/kg.
Four hours post dosing of the formulations, the animals were culled, and tissues were harvested. Terminal blood was collected in EDTA tubes and treated with Red Blood Cell Lysing Buffer HYBRI-MAX (Merck) prior to antibody staining. Spleens were dissociated by pushing through a 70 uM cell strainer using a syringe plunge. The cell suspension was then treated with Red Blood Cell Lysing Buffer HYBRI-MAX (Merck) prior to antibody staining. Lung and tumour samples were cut into small pieces and were enzymatically digested using the Lung and Tumor Dissociation Kit (mouse) and the gentleMACS™ Octo Dissociator with Heaters (Miltenyi) following the manufacturer's instructions.
The final cell suspensions were blocked with mouse Fc block prior to antibody staining. Cells were incubated with the antibody master mix at 4 C for 20 min and then they were fixed using 4% PFA for 30 min RT. They were analysed using the Attune NxT flow cytometer (Thermo Fisher) within 24 hours of fixing and data was analysed using the FlowJo_v10.8.1 software. Compensation was adjusted using the Attune compensation beads.

mouse macrophages = assay: eGFP mRNA transfection of mouse macrophages with or without mannose-dendrimer coat; assay type: cell-based; conditions: GSCG1,2-RHL nanoparticle NP=8:1, DOTMA/DOPE:mRNA w/w 10:1, coat 1:1 (1 eq) coating:mRNA; FIG. 6
Method: J774.2 cells were subcultured in DMEM supplemented with 2 mM glutamax and 10% heat-inactivated FBS (complete media). Twice a week (at about 70-80% confluency; every 3-4 days), cells were scrapped and collected into Falcon tubes, and pelleted at 400 g for 5 minutes. The cells were resuspended in complete media, counted and seeded into 10 cm dishes at a density of 1.7-2.5E+4 cells/cm^2. For M2 polarisation, the cells were treated with complete media supplemented with 20 ng/ml recombinant murine IL-4 and 20 ng/ml recombinant murine IL-13 (activation media) over a 48 hr period. After 24 hrs in IL-4 and IL-13 containing medium, the cells scrapped and collected as described above. The cells were seeded into 24-well plates at a density of 1.2E+5 cells/well in 0.5mls/well complete media containing 20 ng/ml IL-4 and IL-13.
The media overlaying the polarised J774.2 cells was aspirated and exchanged with 480 ul/well activation media. 120 ul/well of each test condition (total volume was 600 ul/well) was added (test conditions were prepared in 25 mM HEPES solution). Control conditions were prepared consisting of neat 25 mM HEPES and an mRNA control. Between addition of each test condition the plate was shaken back and forth to ensure mixing. The plate was placed into the incubator overnight.
Staining and fixation for both human and mouse-derived macrophages was carried out as follows. After 24 hrs the media overlaying each test condition was transferred to corresponding 1.5 ml Eppendorf tubes (in order to conserve cells that may have died during transfection). Cells were then washed with 300 ul/well PBS which was transferred to the corresponding tubes. 500 ul/well 5 mM EDTA was added to each well and the plate(s) transferred to the 37° C. incubator for 5-10 minutes until the cells started to detach. Cells were then transferred from the plate to the corresponding 1.5 ml tubes. Cells were pelleted down at 300 g for 5 minutes and resuspended in 100 ul/sample fixable Live/Dead Aqua stain. ArC beads were stained with 3 ul neat Live/Dead Aqua for compensation. These cells were stained on ice for 30 minutes. Following this, the tubes were spun down at 300 g for 5 minutes. The supernatant was discarded, and the cells were resuspended in 500 ul/sample PBS. Negative ArC beads were added to the compensation control. GFP compensation beads were dispensed into separate tube as the GFP compensation control. The samples were spun down at 300 g for 5 minutes. Samples were then resuspended in 100 ul/sample of Reagent A from the Invitrogen Fix/Perm kit and left at room temperature for 15 minutes. The samples were spun down at 400 g for 5 minutes and the supernatant was disposed. The samples were once again washed with PBS and spun down at 300 g for 5 minutes. The cells were finally resuspended in 400 ul/sample FACS buffer (PBS+2 mM EDTA+0.5% w/v BSA) for flow analysis. Samples were stored in the fridge prior to flow analysis and run within 24 hrs of fixation.
12 μl of a nanoparticle formulation was aliquoted into a sterile 0.5 ml polypropylene tube. 4 μl of a 0.3 mg/ml, 0.6 mg/ml or 1.8 mg/ml solution of (Ac-EEEE)2[…][(S-S)-α-D-Thiomannose] (for a mRNA:coating mass ratio of 1:0.5, 1:1 or 1:3, respectively) was mixed by rapidly pipetting up and down 10-15 times, and allowed to incubate for 5 minutes.
Macrophages, and in particular M2-phenotype macrophages, are known to have enriched surface expression of the receptor CD206, the ligand for which is mannose.

myeloid cells in tumour = assay: In vivo uptake of Alexafluor488 tagged mRNA by cells in tumour of MC38 bearing mice; set-up: species or system C57Bl/6 mice; conditions: GSCG1,2-RL, 3-LR N:P=0.16:1, DOTMA:DOPE 10:1, coat 3 eq; 2.25 mg/kg IV, 4 hours; FIG. 39
Excerpt: Compensation was adjusted using the Attune compensation beads.

Row | Substance | Polydispersity Index (PDI) [1] | delivery of luciferase mRNA cargo to lung and spleen (bioluminescence) (lung and spleen) | uptake by CD206+ cells in the lung versus non-coated nanocarrier and LPX-mRNA (lung cells) | uptake in the lung cells versus non-coated nanocarrier and LPX-mRNA (lung cells) | increase of transfection efficiency compared to a non-coated nanoparticle (mouse macrophages) | uptake by CD206+ M2 macrophage cells in tumour versus non-coated nanocarrier and LPX-mRNA (myeloid cells in tumour)
1 | (LRLR)2KGSC-NH2 [GSCG1-LRLR] | 0.581 | further improved | – | – | – | –
2 | (Ac-EEEE)2KGSGGSGGSC[(S-S)-α-D-Thiomannose] [Mannose-G1-EEEE] | – | – | more effectively | higher uptake in the lung cells | ~10% | more effectively
